Measurements reported in PMC10465243, “Identification of sucrose synthase from Micractinium conductrix to favor biocatalytic glycosylation” (Frontiers in Microbiology, 2023).

Target: T1, UGT76G1 (Stevia rebaudiana, UniProt Q6VAB4, S195Q)
T1 construct: codon-optimised gene in pRSFDuet-1 (NdeI/XhoI), co-expressed with a SuSy in E. coli BL21(DE3), crude extract
Experiment: HPLC of RebD and RebM, one-pot coupled with McSuSy S31D, E. coli crude extract
Assay type: biochemical
Conditions: sucrose, UDP recycling, potassium phosphate pH 7.2, 40°C; RebD formed in situ as intermediate

T1 sequence (Q6VAB4 whole entry S195Q): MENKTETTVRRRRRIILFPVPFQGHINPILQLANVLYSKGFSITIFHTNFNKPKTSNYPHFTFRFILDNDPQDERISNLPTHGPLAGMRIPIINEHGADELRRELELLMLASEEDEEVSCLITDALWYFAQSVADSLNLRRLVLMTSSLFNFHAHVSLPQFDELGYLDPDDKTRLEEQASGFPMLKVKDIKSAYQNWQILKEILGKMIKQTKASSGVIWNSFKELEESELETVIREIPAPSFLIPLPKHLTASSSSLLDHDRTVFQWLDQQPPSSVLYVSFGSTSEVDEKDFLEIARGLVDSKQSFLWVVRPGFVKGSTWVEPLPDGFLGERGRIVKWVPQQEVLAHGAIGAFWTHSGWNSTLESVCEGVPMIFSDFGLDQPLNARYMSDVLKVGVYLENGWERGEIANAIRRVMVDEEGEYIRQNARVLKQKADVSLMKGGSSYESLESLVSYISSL

For C=C1C[C@@]23CC[C@H]4[C@@](C)(CCC[C@@]4(C)C(=O)O[C@@H]4O[C@H](CO)[C@@H](O)[C@H](O)[C@H]4O[C@@H]4O[C@H](CO)[C@@H](O)[C@H](O)[C@H]4O)[C@@H]2CC[C@]1(O[C@@H]1O[C@H](CO)[C@@H](O)[C@H](O[C@@H]2O[C@H](CO)[C@@H](O)[C@H](O)[C@H]2O)[C@H]1O[C@@H]1O[C@H](CO)[C@@H](O)[C@H](O)[C@H]1O)C3 [RebD], the “HPLC of RebD and RebM, one-pot coupled with McSuSy S31D, E. coli crude extract” value was “second glycosylation reaction that RebD was converted into RebM by UGT76G1_S195Q”.
